From PubChem BioAssay (NCI)
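Test compounds were applied to cells in 96-well plates for 48 hours at 5 doses. The concentration for full growth arrest is given as TGI.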

Assays:
Experiment in all cases: NCI tumour cell line growth inhibition, 48 h
[1] = tested on: CCRF-CEM leukemia
[2] = tested on: SK-MEL-28 melanoma
[3] = tested on: UO-31 renal
[4] = tested on: T-47D breast
[5] = tested on: NCI-H460 lung
[6] = tested on: SK-OV-3 ovarian
[7] = tested on: A498 renal
[8] = tested on: OVCAR-3 ovarian
[9] = tested on: MOLT-4 leukemia
[10] = tested on: OVCAR-8 ovarian
[11] = tested on: UACC-257 melanoma
[12] = tested on: PC-3 prostate
[13] = tested on: HS 578T breast
[14] = tested on: NCI-H226 lung
[15] = tested on: SK-MEL-5 melanoma
[16] = tested on: LOX IMVI melanoma

SMILES | TGI [1] | TGI [2] | TGI [3] | TGI [4] | TGI [5] | TGI [6] | TGI [7] | TGI [8] | TGI [9] | TGI [10] | TGI [11] | TGI [12] | TGI [13] | TGI [14] | TGI [15] | TGI [16]
S=C(N1CCN(c2ccccc2)CC1)N1CCN(c2ccccc2)CC1 | 68.7 µM | > 100 µM | > 100 µM | > 100 µM | > 100 µM | > 100 µM | > 100 µM | > 100 µM | > 100 µM | > 100 µM | > 100 µM | > 100 µM | > 100 µM | > 100 µM | > 100 µM | –
COC1/C=C/C(C)C(C(C)C(OC)C(C)CCC(=O)C(C)C(CC(=O)O)OC)OC(=O)/C=C/C=C(\C)CC(OC)CC2=CC(=O)O[C@H](C2)C(C)C(OC)CC(OC)/C=C/C(C)C(OC)C1 (stereo not given in full) | > 4.35 µM | 1.25 µM | 1.22 µM | > 4.35 µM | > 4.35 µM | > 4.35 µM | 2.17 µM | > 4.35 µM | > 4.35 µM | > 4.35 µM | > 4.35 µM | 3.1 µM | 0.387 µM | 2.26 µM | > 4.35 µM | –
Cc1ccc(N2C(N)=C(C#N)C(C#N)(C#N)C2c2ccccc2)cc1 (stereo not given) | 7.33 µM | 22.3 µM | 32 µM | 21.4 µM | – | 47.6 µM | 35.7 µM | 27.4 µM | 8.27 µM | 40.2 µM | 30.4 µM | 44.9 µM | 76.7 µM | 38.9 µM | 20.9 µM | 23.9 µM
O=C1CCCc2ccc3c(c21)CC1(Cc2ccccc2C1)C3 | – | – | > 100 µM | > 100 µM | – | > 100 µM | > 100 µM | 98.6 µM | – | > 100 µM | 58 µM | > 100 µM | > 100 µM | 67.3 µM | 33.4 µM | > 100 µM
Cc1csc(NNC(=O)Nc2ccccc2)n1 | > 100 µM | > 100 µM | > 100 µM | > 100 µM | > 100 µM | > 100 µM | > 100 µM | – | – | > 100 µM | > 100 µM | > 100 µM | > 100 µM | > 100 µM | > 100 µM | > 100 µM
O=c1c2c(F)c(F)c(F)c(F)c2sc2nccn12 | 29.6 µM | 53.5 µM | – | 24.2 µM | 27.3 µM | 36 µM | 35.1 µM | 29.8 µM | 9.62 µM | 44.8 µM | 45.5 µM | 35.9 µM | 76.2 µM | 52.3 µM | 35.8 µM | 26.7 µM
COc1ccc(C(=O)/C=C/c2ccc(OCC(=N)N)cc2)cc1 | 25.7 µM | 28.6 µM | 34.1 µM | 26.5 µM | – | 25.5 µM | 27.9 µM | 27.5 µM | 30.9 µM | 37.3 µM | 38.1 µM | 27.9 µM | 34.9 µM | 34.1 µM | 33.1 µM | –
